Data published in patent US9518022B2, “Anti-HIV compounds” (priority 2014, dated 2016).
Read-outs that look alike come from different tables or passages of the source.

Experiment: Cytotoxicity assay (AlamarBlue) in mock infected MT-2 cells
Format: cell-based
Conditions: human
Procedure: The present assay was used to screen candidate antiviral compounds by quantification of virus spread and production over several rounds of infection in vitro. MT-2, a HIV-1 permissive human T-cell line, was seeded in microtiter plates and was simultaneously treated with serially diluted compound and inoculated with a HIV-1 NL4-3 viral clone engineered to express Renilla luciferase in place of Nef. Following treatment, the culture was incubated for 96 hours. After the incubation, media was collected and used to estimate relative infectivity on the indicator cell line, TZM-bl. Additionally, viral spread was quantified by measuring luciferase activity via a commercially available luciferase substrate. In parallel, MT-2 cells were seeded and inoculated with mock virus in the presence of serially diluted compound. Compound toxicity was quantified 96 hours after treatment with AlamarBlue.
MT-2 (NIH Aids reagent program 237) cells were grown and maintained in an incubator at 37° C. with 5% CO2 using a basal medium of RPMI-1640 supplemented with 10% FBS. Cells were seeded in 100 μl at 2×10^4 cells/well in white walled 96-well microtiter plates. Candidate compounds were 3-fold serially diluted in the appropriate solvent. Solvent without compound was used as a no drug reference. Cells were inoculated at a multiplicity of 0.027 with an HIV-1 NL4-3 virus stock engineered to express Renilla luciferase in place of Nef. Diluted virus stock was first added to serially diluted compound. Compound and virus were delivered to cells in an equal volume (100 μl) and treated cultures were returned to the incubator for 96 hours. In parallel, plates for cytotoxicity estimates were prepared in the same way except cells were plated in clear walled 96-well microtiter plates and were mock infected.
At 96 hours post treatment, 20 μl AlamarBlue proliferation reagent was added to 200 μl treated and mock infected cultures and incubated for 3 hours at 37° C. with 5% CO2 then read at 545, 590 nm on fluorescence plate reader (Biotek).
For all assays, data was imported into Accelrys Assay Explorer 3.3. In Assay Explorer, % inhibition (antiviral or cytotoxicity) was calculated using the solvent control as a reference by the following equation: 1−(SignalCompound/SignalReference). The % Inhibition and compound concentration data was fitted using the following 4-parameter logistic model (Assay Explorer model 42):
[formula] where X is compound concentration, Y is % inhibition, D is the maximum % Inhibition (constrained to 100%), C is IC50 value or inflection point, B is the hill slope, and A is the minimum % inhibition (constrained to 0%). The IC50 value is reported as the EC50 or CC50 depending on the assay endpoint. EC50 represents the effective concentration at which virus replication is inhibited by 50 percent. CC50 represents the concentration that results in the death of 50 percent of the host cells. The selectivity or therapeutic index (SI or TI), is the ratio of CC50 over EC50 and represents the relative effectiveness in inhibiting viral replication compared to inducing cell death.

SMILES | CC50 at 96 h | CC50 at 96 h (mock infected MT-2 cells, 96 hours, AlamarBlue, read-out: CC50)
COc1cc2c(cc1OCc1ccccc1)CCNC2/C=C/c1ccc(-n2ccnc2)cc1 (stereo not shown) [DK, 6-(benzyloxy)-1-[(E)-2-[4-(1H-imidazol-1-yl)phenyl]ethenyl]-7-methoxy-1,2,3,4-tetrahydroisoquinoline] | 9.13 µM | –
COc1cc2c(cc1OCc1ccccc1)CCNC2/C=C/c1ccc2c(c1)OC(F)(F)O2 (stereo not shown) [DF, 6-(benzyloxy)-1-[(E)-2-(2,2-difluoro-2H-1,3-benzodioxol-5-yl)ethenyl]-7-methoxy-1,2,3,4-tetrahydroisoquinoline] | 10 µM | –
COc1ccc(/C=C/C2NCCc3cc(OCc4ccccc4)c(OC)cc32)c(OC)n1 (stereo not shown) [CA, 6-(benzyloxy)-1-[(E)-2-(2,6-dimethoxypyridin-3-yl)ethenyl]-7-methoxy-1,2,3,4-tetrahydroisoquinoline] | 15.3 µM | –
COc1ccc(/C=C/C2NCCc3cc(OCc4ccccc4)c(OC)cc32)cc1F (stereo not shown) [BF, 6-(benzyloxy)-1-[(E)-2-(3-fluoro-4-methoxyphenyl)ethenyl]-7-methoxy-1,2,3,4-tetrahydroisoquinoline] | 33.5 µM | –
COc1cc2c(cc1OCc1ccccc1)CCNC2/C=C/c1cc(OCC2CCNCC2)c(OC)cc1C (stereo not shown) [BY, 6-(benzyloxy)-7-methoxy-1-[(E)-2-[4-methoxy-2-methyl-5-(piperidin-4-ylmethoxy)phenyl]ethenyl]-1,2,3,4-tetrahydroisoquinoline] | 1.97 µM | –
COc1ccc(/C=C/C2NCCc3cc(OCc4ccccc4)c(OC)cc32)cc1 (stereo not shown) [BJ, 6-(benzyloxy)-7-methoxy-1-[(E)-2-(4-methoxyphenyl)ethenyl]-1,2,3,4-tetrahydroisoquinoline] | 20.9 µM | –
COc1ccc(/C=C/C2NCCc3cc(OCc4ccccc4)c(OC)cc32)cn1 (stereo not shown) [AX, 6-benzyloxy-7-methoxy-1-[(E)-2-(6-methoxy-3-pyridyl)vinyl]-1,2,3,4-tetrahydroisoquinoline] | – | 11.4 µM
COc1cc(C)c(/C=C/C2c3cc(OC)c(OCc4ccccc4)cc3CCN2C(=O)c2ccncc2)cc1OCc1ccccc1 (stereo not shown) [Example U, [6-benzyloxy-1-[(E)-2-(5-benzyloxy-4-methoxy-2-methyl-phenyl)vinyl]-7-methoxy-3,4-dihydro-1H-isoquinolin-2-yl]-(4-pyridyl)methanone] | > 100 µM | –
CCCCOc1ccc(/C=C/C2NCCc3cc(OCc4ccccc4)c(OC)cc32)cc1OC (stereo not shown) [BD, 6-(benzyloxy)-1-[(E)-2-(4-butoxy-3-methoxyphenyl)ethenyl]-7-methoxy-1,2,3,4-tetrahydroisoquinoline] | 3.62 µM | –
COc1cc2c(cc1OCc1ccccc1)CCNC2/C=C/c1ccc(N2CCCCC2)cc1 (stereo not shown) [EA, 6-(benzyloxy)-7-methoxy-1-[(E)-2-[4-(piperidin-1-yl)phenyl]ethenyl]-1,2,3,4-tetrahydroisoquinoline] | 4.8 µM | –
COCCCCOc1cc(OC)ccc1/C=C/C1NCCc2cc(OCc3ccccc3)c(OC)cc21 (stereo not shown) [Example AI, (E)-6-(benzyloxy)-7-methoxy-1-(4-methoxy-2-(4-methoxybutoxy)styryl)-1,2,3,4-tetrahydroisoquinoline] | 5.6 µM | –
COc1cc2c(cc1OCc1ccccc1)CCNC2/C=C/c1ccccc1C(F)(F)F (stereo not shown) [DA, 6-(benzyloxy)-7-methoxy-1-[(E)-2-[2-(trifluoromethyl)phenyl]ethenyl]-1,2,3,4-tetrahydroisoquinoline] | 10 µM | –
COc1cc2c(cc1OCc1ccccc1)CCNC2/C=C/c1ccccc1N(C)C (stereo not shown) [DC, 2-[(E)-2-[6-(benzyloxy)-7-methoxy-1,2,3,4-tetrahydroisoquinolin-1-yl]ethenyl]-N,N-dimethylaniline] | 10 µM | –
COc1ccc(/C=C/C2NCCc3cc(OCc4ccccc4)c(OC)cc32)c(OC)c1 (stereo not shown) [AV, 6-(benzyloxy)-1-[(E)-2-(2,4-dimethoxyphenyl)ethenyl]-7-methoxy-1,2,3,4-tetrahydroisoquinoline] | 5.5 µM | –
COc1cc(C)c(/C=C/C2NCCc3cc(OCc4ccccc4)c(OC)cc32)c(C)c1 (stereo not shown) [BA, 6-(benzyloxy)-7-methoxy-1-[(E)-2-(4-methoxy-2,6-dimethylphenyl)ethenyl]-1,2,3,4-tetrahydroisoquinoline] | 3.33 µM | –
COc1cc2c(cc1OCc1ccccc1)CCNC2/C=C/c1ccc2cccnc2c1 (stereo not drawn) [DL, 7-[(E)-2-[6-(benzyloxy)-7-methoxy-1,2,3,4-tetrahydroisoquinolin-1-yl]ethenyl]quinoline] | 7 µM | –

SMILES | CC50 at 96 h | CC50 at 96 h (mock infected MT-2 cells, 96 hours, AlamarBlue, read-out: CC50)
COc1cc(C)c(CCC2NCCc3cc(OCc4ccccc4)c(OC)cc32)cc1OCc1ccccc1 (stereo not shown) [Example Q, 6-benzyloxy-1-[2-(5-benzyloxy-4-methoxy-2-methyl-phenyl)ethyl]-7-methoxy-1,2,3,4-tetrahydroisoquinoline] | 5.15 µM | –
COc1cc(C)c(/C=C/C2c3cc(OC)c(OCc4ccccc4)cc3CCN2C)cc1OCc1ccccc1 (stereo not shown) [Example E, 6-Benzyloxy-1-[(E)-2-(5-benzyloxy-4-methoxy-2-methyl-phenyl)vinyl]-7-methoxy-2-methyl-3,4-dihydro-1H-isoquinoline] | 7.17 µM | –
CCn1cc(/C=C/C2NCCc3cc(OCc4ccccc4)c(OC)cc32)cn1 (stereo not shown) [Example AL, 6-Benzyloxy-1-[(E)-2-(1-ethylpyrazol-4-yl)vinyl]-7-methoxy-1,2,3,4-tetrahydroisoquinoline] | 24.2 µM | –
COc1cc2c(cc1OCc1ccccc1)CCNC2/C=C/c1cn(C(=O)OC(C)(C)C)c2ccccc12 (stereo not shown) [CI, tert-butyl 3-[(E)-2-[6-(benzyloxy)-7-methoxy-1,2,3,4-tetrahydroisoquinolin-1-yl]ethenyl]-1H-indole-1-carboxylate] | 4.98 µM | –
COc1ccc(CCC2NCCc3cc(OC)c(OC)cc32)cc1OC (stereo not shown) [Example A, 1-[2-(3,4-Dimethoxyphenyl)ethyl]-6,7-dimethoxy-1,2,3,4-tetrahydroisoquinoline] | > 10 µM | –
CCOC(=O)c1ccccc1/C=C/C1NCCc2cc(OCc3ccccc3)c(OC)cc21 (stereo not shown) [ET, ethyl 2-[(E)-2-[6-(benzyloxy)-7-methoxy-1,2,3,4-tetrahydroisoquinolin-1-yl]ethenyl]benzoate] | 9.9 µM | –
COc1cc2c(cc1OCc1ccccc1)CCNC2/C=C/c1cc2ccccc2s1 (stereo not shown) [DU, 1-[(E)-2-(1-benzothiophen-2-yl)ethenyl]-6-(benzyloxy)-7-methoxy-1,2,3,4-tetrahydroisoquinoline] | 16.3 µM | –
COc1ccc(/C=C/C2c3cc(OC)c(OCc4ccccc4)cc3CCN2C)cc1OCc1ccccc1 (stereo not shown) [Example V, 6-benzyloxy-1-[(E)-2-(3-benzyloxy-4-methoxy-phenyl)vinyl]-7-methoxy-2-methyl-3,4-dihydro-1H-isoquinoline] | 6.68 µM | –
COc1cc2c(cc1OCc1ccccc1)CCNC2/C=C/c1ccc(OC)c(C(F)(F)F)c1 (stereo not shown) [CY, 6-(benzyloxy)-7-methoxy-1-[(E)-2-[4-methoxy-3-(trifluoromethyl)phenyl]ethenyl]-1,2,3,4-tetrahydroisoquinoline] | 4 µM | –
COc1cc2c(cc1OCc1ccccc1)CCNC2/C=C/c1ccc(OC)c2occc12 (stereo not shown) [Example AN, 6-Benzyloxy-7-methoxy-1-[(E)-2-(7-methoxybenzofuran-4-yl)vinyl]-1,2,3,4-tetrahydroisoquinoline] | 3.7 µM | –
COc1cc2c(cc1OC)C(/C=C/c1cc(OCc3ccccc3)c(OC)cc1C)NCC2 (stereo not shown) [Example C, 1-[(E)-2-(5-Benzyloxy-4-methoxy-2-methyl-phenyl)vinyl]-6,7-dimethoxy-1,2,3,4-tetrahydroisoquinoline] | 11 µM | –
COc1cc2c(cc1OCc1ccccc1)CCNC2/C=C/c1ccc(S(C)(=O)=O)cc1 (stereo not shown) [BZ, 6-(benzyloxy)-1-[(E)-2-(4-methanesulfonylphenyl)ethenyl]-7-methoxy-1,2,3,4-tetrahydroisoquinoline] | 1 µM | –
COc1cc2c(cc1OCc1ccccc1)CCNC2/C=C/c1ccc2c(c1)OCC2 (stereo not shown) [EG, 6-(benzyloxy)-1-[(E)-2-(2,3-dihydro-1-benzofuran-6-yl)ethenyl]-7-methoxy-1,2,3,4-tetrahydroisoquinoline] | 19.3 µM | –
COc1cc2c(cc1OCc1ccccc1)CCNC2/C=C/c1cn(C)c2ncccc12 (stereo not shown) [DP, 6-(benzyloxy)-7-methoxy-1-[(E)-2-{1-methyl-1H-pyrrolo[2,3-b]pyridin-3-yl}ethenyl]-1,2,3,4-tetrahydroisoquinoline] | 1.3 µM | –
COc1cc(C)c(/C=C/C2NCCc3cc(OCc4ccccc4)c(OC)cc32)cc1C (stereo not shown) [BV, 6-(benzyloxy)-7-methoxy-1-[(E)-2-(4-methoxy-2,5-dimethylphenyl)ethenyl]-1,2,3,4-tetrahydroisoquinoline] | 2.63 µM | –
